Experimental findings from patent US20250228835A1, “PYRIDINYLOXYPYRIDINES AND RELATED COMPOUNDS AND THEIR USE IN TREATING MEDICAL CONDITIONS” (Rectify Pharmaceuticals, Inc., priority 2024, published 2025) are described below.

Type in all cases: cell-based
Assay [1] deals with T1, ABCC6 WT (Homo sapiens, UniProt O95255).
T1 construct: expressed in transfected cells; host or cells: HEK-293 (transient, Lipofectamine 2000)
In words: ABCC6 WT assay: HiBit protein expression. To be noted: HEK-293 cells transiently expressing HiBit-tagged ABCC6 WT; 24 h treatment; top concentration 20 μM; read-out: ABCC6 WT EC50, Emax. The procedure, abridged:
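HEK-293 cells transiently transfected with HiBit-tagged human ABCC6 WT cDNA, seeded 24 h post-transfection, treated 24 h at 37° C with ten 2-fold doses (top 20 μM final, 0.15% DMSO). HiBit lytic luminescence reports protein expression; Emax and EC50 derived.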

Assay [2] deals with T2, ABCB4 WT (Homo sapiens, UniProt P21439).
T2 construct: expressed in transfected cells
In words: ABCB4 WT assay: HiBit protein expression. To be noted: HEK-293 cells stably expressing HiBit-tagged ABCB4 WT; 24 h treatment; top concentration 30 μM; read-out: ABCB4 WT EC50, Emax. The procedure, abridged: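 HEK-293 cells stably expressing HiBit-tagged human ABCB4 WT, treated 24 h at 37 °C with 11-dose 3-fold dilutions, top final 30 μM in 0.3% DMSO. HiBit lytic reagent luminescence read after 1 h at 25 °C; Emax and EC50 derived.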

The target in assay [3] is T3, ABCA4 P1380L (Homo sapiens, UniProt P78363, P1380L).
T3 construct: expressed in transfected cells
Put plainly: A4 correction dose-response assay: ABCA4 P1380L HiBit protein expression. As to conditions: HEK-293 cells stably expressing HiBit-tagged ABCA4 P1380L, 24 h treatment, top concentration 30 μM. The procedure, abridged:
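Cells transfected with HiBit-tagged human ABCA4 P1380L cDNA were treated for 24 h at 37°C with an eleven-point dilution series (top final 30 μM, 0.3% DMSO).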
In general terms: With HiBiT, luminescence reflects the tagged protein that the partner subunit can reach.

The mark [4] stands for this setting: read-out: ABCA4 P1380L EC50, Emax.

Read-outs that look alike come from different tables or passages of the source.

T1 sequence (O95255 whole entry): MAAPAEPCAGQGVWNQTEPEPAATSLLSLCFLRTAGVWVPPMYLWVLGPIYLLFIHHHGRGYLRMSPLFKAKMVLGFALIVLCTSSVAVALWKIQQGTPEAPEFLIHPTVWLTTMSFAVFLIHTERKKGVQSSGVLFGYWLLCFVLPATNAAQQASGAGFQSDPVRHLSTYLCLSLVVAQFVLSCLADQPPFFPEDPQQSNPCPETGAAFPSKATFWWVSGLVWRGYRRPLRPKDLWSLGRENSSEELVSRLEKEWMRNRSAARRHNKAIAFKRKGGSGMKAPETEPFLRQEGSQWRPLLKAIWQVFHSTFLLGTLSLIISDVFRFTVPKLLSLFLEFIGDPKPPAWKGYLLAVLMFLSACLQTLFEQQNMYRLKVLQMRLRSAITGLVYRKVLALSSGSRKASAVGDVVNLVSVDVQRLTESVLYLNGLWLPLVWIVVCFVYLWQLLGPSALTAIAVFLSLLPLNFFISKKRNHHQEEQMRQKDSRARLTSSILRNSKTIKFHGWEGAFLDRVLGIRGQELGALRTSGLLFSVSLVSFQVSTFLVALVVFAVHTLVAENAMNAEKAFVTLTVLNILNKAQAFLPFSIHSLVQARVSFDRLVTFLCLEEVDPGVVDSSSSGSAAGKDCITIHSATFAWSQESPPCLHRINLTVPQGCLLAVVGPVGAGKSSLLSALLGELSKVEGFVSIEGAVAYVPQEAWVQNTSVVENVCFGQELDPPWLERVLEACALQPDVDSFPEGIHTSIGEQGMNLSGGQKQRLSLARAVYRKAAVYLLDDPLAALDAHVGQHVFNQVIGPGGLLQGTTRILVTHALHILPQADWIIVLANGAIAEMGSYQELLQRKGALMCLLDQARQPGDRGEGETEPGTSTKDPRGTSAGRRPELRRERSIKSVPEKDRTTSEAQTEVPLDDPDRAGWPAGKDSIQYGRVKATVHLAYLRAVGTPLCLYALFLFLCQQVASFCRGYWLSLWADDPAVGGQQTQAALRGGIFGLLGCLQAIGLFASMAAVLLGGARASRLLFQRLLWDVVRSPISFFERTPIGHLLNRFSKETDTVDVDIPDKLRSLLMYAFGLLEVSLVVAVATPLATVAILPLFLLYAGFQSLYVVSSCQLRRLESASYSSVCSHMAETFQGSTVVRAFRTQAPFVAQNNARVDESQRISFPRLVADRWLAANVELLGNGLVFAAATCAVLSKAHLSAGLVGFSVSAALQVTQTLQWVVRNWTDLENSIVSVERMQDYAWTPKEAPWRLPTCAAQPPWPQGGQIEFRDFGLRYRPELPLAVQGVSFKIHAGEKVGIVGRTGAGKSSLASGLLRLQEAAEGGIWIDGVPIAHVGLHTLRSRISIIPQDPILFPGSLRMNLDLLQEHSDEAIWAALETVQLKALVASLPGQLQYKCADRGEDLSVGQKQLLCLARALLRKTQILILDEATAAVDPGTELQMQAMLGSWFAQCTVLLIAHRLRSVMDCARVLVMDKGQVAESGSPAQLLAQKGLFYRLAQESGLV
T3 sequence (P78363 whole entry P1380L): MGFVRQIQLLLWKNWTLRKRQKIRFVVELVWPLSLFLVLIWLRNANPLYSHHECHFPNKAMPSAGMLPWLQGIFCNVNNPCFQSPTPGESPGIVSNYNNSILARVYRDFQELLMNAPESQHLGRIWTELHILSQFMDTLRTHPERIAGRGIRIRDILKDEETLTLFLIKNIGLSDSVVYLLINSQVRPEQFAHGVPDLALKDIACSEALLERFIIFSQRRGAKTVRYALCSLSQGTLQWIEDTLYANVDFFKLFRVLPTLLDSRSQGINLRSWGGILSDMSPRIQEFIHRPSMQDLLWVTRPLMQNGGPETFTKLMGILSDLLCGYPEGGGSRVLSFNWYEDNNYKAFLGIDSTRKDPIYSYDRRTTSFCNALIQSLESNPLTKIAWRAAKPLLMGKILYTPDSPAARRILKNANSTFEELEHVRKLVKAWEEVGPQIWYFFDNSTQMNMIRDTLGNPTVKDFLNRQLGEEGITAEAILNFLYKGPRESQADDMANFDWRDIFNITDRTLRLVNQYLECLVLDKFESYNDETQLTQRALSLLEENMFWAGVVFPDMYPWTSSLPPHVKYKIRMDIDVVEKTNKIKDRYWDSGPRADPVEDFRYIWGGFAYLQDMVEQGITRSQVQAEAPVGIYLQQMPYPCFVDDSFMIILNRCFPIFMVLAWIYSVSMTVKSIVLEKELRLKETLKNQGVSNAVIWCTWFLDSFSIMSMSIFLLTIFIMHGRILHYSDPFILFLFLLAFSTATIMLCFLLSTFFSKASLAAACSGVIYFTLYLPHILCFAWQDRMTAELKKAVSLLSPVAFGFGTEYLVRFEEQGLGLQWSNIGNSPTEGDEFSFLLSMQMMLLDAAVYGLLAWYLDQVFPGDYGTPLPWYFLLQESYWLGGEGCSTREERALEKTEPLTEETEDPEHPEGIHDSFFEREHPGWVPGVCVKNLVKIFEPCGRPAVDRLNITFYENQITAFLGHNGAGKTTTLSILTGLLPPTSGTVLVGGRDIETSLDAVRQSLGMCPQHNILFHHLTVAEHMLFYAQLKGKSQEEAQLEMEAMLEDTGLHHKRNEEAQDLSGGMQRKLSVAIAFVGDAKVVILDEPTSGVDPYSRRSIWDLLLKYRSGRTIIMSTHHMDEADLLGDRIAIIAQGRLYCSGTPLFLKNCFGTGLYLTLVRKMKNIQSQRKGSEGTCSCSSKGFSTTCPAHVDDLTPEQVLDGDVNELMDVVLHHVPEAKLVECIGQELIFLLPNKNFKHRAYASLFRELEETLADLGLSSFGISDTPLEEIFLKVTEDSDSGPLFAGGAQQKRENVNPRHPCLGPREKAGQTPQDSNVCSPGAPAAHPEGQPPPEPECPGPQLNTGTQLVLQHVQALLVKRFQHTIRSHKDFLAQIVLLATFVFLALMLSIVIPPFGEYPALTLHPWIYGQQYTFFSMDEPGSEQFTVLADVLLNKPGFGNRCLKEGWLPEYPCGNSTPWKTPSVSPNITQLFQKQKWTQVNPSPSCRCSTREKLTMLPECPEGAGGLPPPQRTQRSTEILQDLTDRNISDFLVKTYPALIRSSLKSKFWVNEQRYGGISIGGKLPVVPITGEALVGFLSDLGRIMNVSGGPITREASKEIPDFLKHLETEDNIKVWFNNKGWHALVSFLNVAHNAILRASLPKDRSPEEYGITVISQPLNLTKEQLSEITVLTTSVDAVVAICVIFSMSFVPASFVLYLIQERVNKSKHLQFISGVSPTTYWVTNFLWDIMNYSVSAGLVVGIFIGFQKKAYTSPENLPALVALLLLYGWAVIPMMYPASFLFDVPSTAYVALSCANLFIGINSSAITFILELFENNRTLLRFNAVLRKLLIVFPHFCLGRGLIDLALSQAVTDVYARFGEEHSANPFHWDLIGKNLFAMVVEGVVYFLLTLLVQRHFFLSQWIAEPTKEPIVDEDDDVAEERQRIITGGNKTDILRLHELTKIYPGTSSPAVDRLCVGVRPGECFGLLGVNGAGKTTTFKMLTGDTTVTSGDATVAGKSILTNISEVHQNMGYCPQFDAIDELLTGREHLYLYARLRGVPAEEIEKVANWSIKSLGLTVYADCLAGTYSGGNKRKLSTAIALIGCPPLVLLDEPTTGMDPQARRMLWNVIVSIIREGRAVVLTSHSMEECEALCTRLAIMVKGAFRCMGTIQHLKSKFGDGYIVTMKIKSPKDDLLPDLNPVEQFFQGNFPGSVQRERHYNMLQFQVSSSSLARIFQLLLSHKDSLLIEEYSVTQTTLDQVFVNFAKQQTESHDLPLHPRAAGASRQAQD
T2 sequence (P21439 whole entry): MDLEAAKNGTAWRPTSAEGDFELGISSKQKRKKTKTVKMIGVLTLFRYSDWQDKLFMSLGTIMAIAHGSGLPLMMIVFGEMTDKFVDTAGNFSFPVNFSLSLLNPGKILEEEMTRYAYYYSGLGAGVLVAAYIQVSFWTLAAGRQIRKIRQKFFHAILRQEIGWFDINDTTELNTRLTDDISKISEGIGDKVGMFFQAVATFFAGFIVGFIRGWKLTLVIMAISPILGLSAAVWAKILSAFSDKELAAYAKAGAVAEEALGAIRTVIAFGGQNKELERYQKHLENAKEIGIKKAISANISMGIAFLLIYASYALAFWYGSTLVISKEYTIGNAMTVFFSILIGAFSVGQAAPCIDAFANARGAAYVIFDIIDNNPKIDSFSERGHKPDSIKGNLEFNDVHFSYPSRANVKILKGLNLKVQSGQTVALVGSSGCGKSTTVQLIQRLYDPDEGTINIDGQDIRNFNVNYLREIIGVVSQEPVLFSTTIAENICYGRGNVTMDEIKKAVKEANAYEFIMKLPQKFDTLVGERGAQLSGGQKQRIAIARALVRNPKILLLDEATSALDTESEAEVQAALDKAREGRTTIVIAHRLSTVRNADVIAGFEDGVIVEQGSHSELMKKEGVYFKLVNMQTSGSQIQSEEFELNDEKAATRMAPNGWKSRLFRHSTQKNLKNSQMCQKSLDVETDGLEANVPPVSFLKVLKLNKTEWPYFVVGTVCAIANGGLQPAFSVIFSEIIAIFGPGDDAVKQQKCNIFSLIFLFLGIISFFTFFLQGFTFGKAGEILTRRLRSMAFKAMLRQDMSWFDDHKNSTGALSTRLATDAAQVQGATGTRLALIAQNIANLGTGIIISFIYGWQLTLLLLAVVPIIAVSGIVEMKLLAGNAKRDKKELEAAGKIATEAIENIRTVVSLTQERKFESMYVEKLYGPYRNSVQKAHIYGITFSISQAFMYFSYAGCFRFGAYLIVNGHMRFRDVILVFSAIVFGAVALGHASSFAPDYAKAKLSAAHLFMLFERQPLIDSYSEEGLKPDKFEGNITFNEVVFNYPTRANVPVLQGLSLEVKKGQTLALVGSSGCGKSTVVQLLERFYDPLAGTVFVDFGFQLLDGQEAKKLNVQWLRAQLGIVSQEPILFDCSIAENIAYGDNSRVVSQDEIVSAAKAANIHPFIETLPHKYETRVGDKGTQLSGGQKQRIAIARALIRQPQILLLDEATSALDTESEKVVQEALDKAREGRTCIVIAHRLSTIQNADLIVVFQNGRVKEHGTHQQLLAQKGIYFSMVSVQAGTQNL

As to `Cc1cc(C)c(Oc2nc(N3CCC(C#N)CC3)ccc2NS(C)(=O)=O)c(C)c1` [Compound I-244], the EC50 is 1 to 10 µM in assay [1], at least 25 µM in assay [2] and 10 to 25 µM in assay [3] (setting [4]).
Taken in the same sequence, the figures for `Cc1cc(C)c(Oc2nc(-c3cncc(C#N)c3)ccc2S(=N)(=O)C2CC2)c(C)c1` (stereo not drawn) [Compound I-245] were under 1 µM, 1 to 10 µM and 1 to 10 µM.
Regarding `Cc1cc(C)c(Oc2nc(-c3cncc(Cl)c3)ncc2NS(C)(=O)=O)c(C)n1` [Compound I-246], the figures for the 50% effective concentration (EC50) in assay [1], in assay [2] and in assay [3] (setting [4]) were under 1 µM, under 25 µM and under 1 µM, respectively.
As for `CCS(=O)(=O)Nc1ccc(-c2cncc(C#N)c2)nc1Oc1c(C)cc(C)nc1C` [Compound I-247], the EC50 in assay [1], in assay [2] and in assay [3] (setting [4]) was under 1 µM in each case.
For `Cc1cc(C)c(Oc2nc(-c3cncc(C#N)c3)ccc2S(=N)(=O)C2CC2)c(C)n1` (stereo not drawn) [Compound I-248], the EC50 in assay [1], in assay [2] and in assay [3] (setting [4]) was 1 to 10 µM each time.
On to `Cc1cc(C)c(Oc2nc(-c3cncc(C#N)c3)ccc2S(C)(=N)=O)c(C)n1` (stereo not drawn) [Compound I-249], for which the EC50 in assay [1] was at least 25 µM; in assay [2], under 25 µM; in assay [3] (setting [4]), over 25 µM.
With `Cc1cnc(Oc2nc(-c3cncc(C#N)c3)ccc2NS(C)(=O)=O)c(C)c1` [Compound I-250], the 50% effective concentration (EC50) in assay [1] is at least 25 µM; in assay [2], at least 25 µM; in assay [3] (setting [4]) it was over 25 µM.
As to `Cc1cc(C2CC2)nc(C)c1Oc1nc(-c2cncc(C#N)c2)ccc1S(C)(=N)=O` (stereo not drawn) [Compound I-251], the EC50 was 10 to 25 µM in assay [1], at least 25 µM in assay [2] and over 25 µM in assay [3] (setting [4]).
Turning to `Cc1cc(C2CC2)nc(C)c1Oc1nc(-c2cncc(C#N)c2)ccc1NS(=O)(=O)C1CCC1` [Compound I-252], the concentration for a half-maximal effect (EC50) in assay [1] is 1 to 10 µM; in assay [2], at least 25 µM; in assay [3] (setting [4]), under 1 µM.
Turning to `Cc1cc(C)c(Oc2nc(-c3cncc(C#N)c3)ccc2NS(=O)(=O)C2CCC2)c(C)c1` [Compound I-253], the half-maximal effective concentration (EC50) in assay [1] was 1 to 10 µM; in assay [2], 1 to 10 µM; in assay [3] (setting [4]) it was under 25 µM.
`Cc1cc(C2CC2)nc(C)c1Oc1nc(-n2cnc(C#N)c2)ccc1NS(C)(=O)=O` [Compound I-254]: the EC50 in assay [1] was under 1 µM; in assay [2] it was under 25 µM; in assay [3] (setting [4]) it was under 1 µM.
With `Cc1cc(C2CC2)nc(C)c1Oc1nc(-n2ccc(C#N)n2)ccc1NS(C)(=O)=O` [Compound I-255], the EC50 in assay [1] was 1 to 10 µM; in assay [2] it was at least 25 µM; in assay [3] (setting [4]), over 25 µM.
For `Cc1cc(C2CC2)nc(C)c1Oc1nc(-n2cc(C#N)cn2)ccc1NS(C)(=O)=O` [Compound I-256], the EC50 in assay [1] is under 1 µM; in assay [2] it was under 1 µM; in assay [3] (setting [4]) it was over 25 µM.
For the compound `Cc1cc(C)c(Oc2nc(-n3ccc(C#N)n3)ccc2NS(C)(=O)=O)c(C)c1` [Compound I-257], the results for the EC50 in assay [1], in assay [2] and in assay [3] (setting [4]) were 1 to 10 µM, at least 25 µM and under 25 µM, respectively.
As to `Cc1cc(C)c(Oc2nc(-c3cncc(C#N)c3)ccc2S(N)(=O)=O)c(C)n1` [Compound I-258], the 50% effective concentration (EC50) in assay [1] was 10 to 25 µM; in assay [2], under 25 µM; in assay [3] (ABCA4 P1380L EC50, Emax) it was 1 to 10 µM.
On to `Cc1cc(C)c(Oc2nc(-c3cncc(C#N)c3)cnc2NS(C)(=O)=O)c(C)n1` [Compound I-259], for which the EC50 was 1 to 10 µM in assay [1], at least 25 µM in assay [2] and under 25 µM in assay [3] (setting [4]).
The matching figures for `Cc1cc(C)c(Oc2nc(-c3cncc(Cl)c3)cnc2NS(C)(=O)=O)c(C)n1` [Compound I-260]: 1 to 10 µM, at least 25 µM and over 25 µM.
As to `Cc1cc(C2CC2)nc(C)c1Oc1nc(-c2cncc(S(C)(=O)=O)c2)ccc1NS(C)(=O)=O` [Compound I-263], the EC50 in assay [1], in assay [2] and in assay [3] (setting [4]) was 1 to 10 µM in each case.
Regarding `Cc1cc(C2CC2)nc(C)c1Oc1nc(-c2cncc(C#N)c2)ccc1NS(=O)(=O)C1CC1` [Compound I-264], the values for the EC50 in assay [1], in assay [2] and in assay [3] (setting [4]) were at least 25 µM, under 1 µM and under 1 µM, respectively.
For `CNS(=O)(=O)c1ccc(-c2cncc(C#N)c2)nc1Oc1c(C)cc(C)nc1C` [Compound I-265], the EC50 was 1 to 10 µM in assay [1], under 1 µM in assay [2] and 1 to 10 µM in assay [3] (setting [4]).

As usually defined, the EC50 is the concentration at which the effect is half-maximal.
